In patent publication US9211310B2, “Use of a Chinese medicine composition in preparing medicaments for treating secondary prevention of myocardial infarction” (TASLY PHARMACEUTICAL GROUP CO., LTD, priority 2010, dated 2015):

Tested on: patients after acute myocardial infarction
Experiment: Life quality, Seattle Angina Questionnaire (SAQ), same clinical trial
Format: in vivo, human
Conditions: 12 months after treatment
Source text: 3508 patients who were in accordance with the diagnostic standards of AMI for 28 days to 2 years and differentiated as Qi deficiency and blood stagnation syndrome by TCM were studied. 0.5 g Chinese medicine composition prepared by the method of EXAMPLE 1 (Coded as QSYQ) was administrated half an hour after meal, 3 times per day.
There were 19 questions in the Seattle angina questionnaire (SAQ), including 5 parts: physical limitation (PL), anginal stability (AS), anginal frequency (AF), treatment satisfaction (TS) and disease perception (DP). After being given necessary explanation by doctors, the questions were answered independently by patients.
They included the overall survival time, angina pectoris score, TCM symptom score and life quality score, where angina pectoris score, TCM symptom score and life quality score were evaluated at randomization, in 1st, 3rd, 6th, 9th, 12th month after treatment and 18th month after follow-up.
All evaluation results of SAQ were described during the period of observation, and Wilcoxon rank sum test was used for inter-group comparison.
The evaluation results in the SAQ were depicted in different observations, and inter-group comparison was tested by Wilcoxon Rank-sum test.

CC(=O)Oc1ccccc1C(=O)O [Control group, aspirine]
SAQ Question 1-5: Not limited, number of patients (FAS): 863
SAQ Question 1-5: Not limited, percent of patients (FAS): (49.51%)
SAQ Question 1-5: Other reasons, number of patients (FAS): 11
SAQ Question 1-5: Other reasons, percent of patients (FAS): (0.63%)
SAQ Question 1-5: Severely limited, number of patients (FAS): 13
SAQ Question 1-5: Severely limited, percent of patients (FAS): (0.75%)
SAQ Question 1-5: Slightly limited, number of patients (FAS): 517
SAQ Question 1-5: Slightly limited, percent of patients (FAS): (29.66%)
SAQ Question 1-9: Mildly limited, % of cases (FAS): (19.60%)
SAQ Question 1-9: Mildly limited, cases (FAS): 336
SAQ Question 1-9: Moderately limited, % of cases (FAS): (20.42%)
SAQ Question 1-9: Moderately limited, cases (FAS): 350
SAQ Question 1-9: Not limited, % of cases (FAS): (4.55%)
SAQ Question 1-9: Not limited, cases (FAS): 78
SAQ Question 1-9: Other reasons, % of cases (FAS): (5.89%)
SAQ Question 1-9: Other reasons, cases (FAS): 101
SAQ Question 1-9: Severely limited, % of cases (FAS): (31.62%)
SAQ Question 1-9: Severely limited, cases (FAS): 542
SAQ Question 1-9: Slightly limited, % of cases (FAS): (17.91%)
SAQ Question 1-9: Slightly limited, cases (FAS): 307
SAQ 2nd question: Clearly increased, % of cases (PP): (0.14%)
SAQ 2nd question: Clearly increased, cases (PP): 2
SAQ 2nd question: Clearly reduced, % of cases (PP): (30.04%)
SAQ 2nd question: Clearly reduced, cases (PP): 428
SAQ 2nd question: Same, % of cases (PP): (37.05%)
SAQ 2nd question: Same, cases (PP): 528
SAQ 2nd question: Slightly increased, % of cases (PP): (1.96%)
SAQ 2nd question: Slightly increased, cases (PP): 28
SAQ 2nd question: Slightly reduced, % of cases (PP): (30.81%)
SAQ 2nd question: Slightly reduced, cases (PP): 439
SAQ 3rd question: 1-2 times per week, % of cases (PP): (30.81%)
SAQ 3rd question: 1-2 times per week, cases (PP): 439
SAQ 3rd question: 1-3 times per day, % of cases (PP): (1.96%)
SAQ 3rd question: 1-3 times per day, cases (PP): 28
SAQ 3rd question: <1 time per week, % of cases (PP): (30.04%)
SAQ 3rd question: <1 time per week, cases (PP): 428
SAQ 3rd question: No onset, % of cases (PP): (0.00%)
SAQ 3rd question: No onset, cases (PP): 0
SAQ 3rd question: ≧3 times per week, % of cases (PP): (37.05%)
SAQ 3rd question: ≧3 times per week, cases (PP): 528
SAQ 3rd question: ≧4 times per day, % of cases (PP): (0.14%)
SAQ 3rd question: ≧4 times per day, cases (PP): 2
SAQ Question 1-3: Mildly limited, number of patients (PP): 30
SAQ Question 1-3: Mildly limited, percent of patients (PP): (2.11%)
SAQ Question 1-3: Moderately limited, number of patients (PP): 3
SAQ Question 1-3: Moderately limited, percent of patients (PP): (0.21%)
SAQ Question 1-3: Not limited, number of patients (PP): 1225
SAQ Question 1-3: Not limited, percent of patients (PP): (86.03%)
SAQ Question 1-3: Other reasons, number of patients (PP): 8
SAQ Question 1-3: Other reasons, percent of patients (PP): (0.56%)
SAQ Question 1-3: Severely limited, number of patients (PP): 1
SAQ Question 1-3: Severely limited, percent of patients (PP): (0.07%)
SAQ Question 1-3: Slightly limited, number of patients (PP): 157
SAQ Question 1-3: Slightly limited, percent of patients (PP): (11.03%)
SAQ Question 1-4: Mildly limited, number of patients (PP): 177
SAQ Question 1-4: Mildly limited, percent of patients (PP): (12.43%)
SAQ Question 1-4: Moderately limited, number of patients (PP): 41
SAQ Question 1-4: Moderately limited, percent of patients (PP): (2.88%)
SAQ Question 1-4: Not limited, number of patients (PP): 724
SAQ Question 1-4: Not limited, percent of patients (PP): (50.84%)
SAQ Question 1-4: Other reasons, number of patients (PP): 11
SAQ Question 1-4: Other reasons, percent of patients (PP): (0.77%)
SAQ Question 1-4: Severely limited, number of patients (PP): 2
SAQ Question 1-4: Severely limited, percent of patients (PP): (0.14%)
SAQ Question 1-4: Slightly limited, number of patients (PP): 469
SAQ Question 1-4: Slightly limited, percent of patients (PP): (32.94%)
SAQ Question 1-5: Mildly limited, number of patients (PP): 198
SAQ Question 1-5: Mildly limited, percent of patients (PP): (13.93%)
SAQ Question 1-5: Moderately limited, number of patients (PP): 52
SAQ Question 1-5: Moderately limited, percent of patients (PP): (3.66%)
SAQ Question 1-5: Not limited, number of patients (PP): 736
SAQ Question 1-5: Not limited, percent of patients (PP): (51.79%)
SAQ Question 1-5: Other reasons, number of patients (PP): 10
SAQ Question 1-5: Other reasons, percent of patients (PP): (0.70%)
SAQ Question 1-5: Severely limited, number of patients (PP): 3
SAQ Question 1-5: Severely limited, percent of patients (PP): (0.21%)
SAQ Question 1-5: Slightly limited, number of patients (PP): 422
